Experimental data from patent US9095604B2, “Composition for preventing inflammations” (Meiji Co, Ltd., priority 2010, dated 2015).

Experiments:
[1] = test system: ulcerative colitis induced by dextran sodium sulfate (DSS); details: cited from earlier work
[2] = test system: aryl hydrocarbon receptor (AhR); experiment: SEAP reporter assay in HeXS34 cells (pXRE-SEAP) for AhR-activating potency; type: cell-based, mouse; details: 10 μM αNF preincubated 30 minutes, then 10% v/v OLL1181 for 24 hours
Experimental: The HeXS34 cells prepared in (1) maintained in MEMα medium (Invitrogen, Carlsbad, Calif.) supplemented with 10% fetal bovine serum (FBS) were sown on a 96 well plate at 5000 cells/90 μL per well, and cultured for 24 hours in the presence of and in the absence of 10 μL (5×10^9 cells/mL) of a freeze-dried heat-sterilized lactic acid bacterium strain. […] Culture supernatants were subsequently subjected to an SEAP assay. The culture supernatant obtained in (2) was subjected to quantitative determination of SEAP by a chemiluminescence method using a Great EscAPe SEAP Chemiluminescence kit (Clontech). The assay was carried out three times, and the average value was determined using the luminescence intensity (LU) so obtained as the SEAP activity. […] In the same way as for Example 1, stimulation was carried out for 24 hours using heat-sterilized suspensions of the two types of lactic acid bacterium strains (5×10^9 cells/mL solution was added at 5% v/v and 10% v/v), and the culture supernatant was subjected to SEAP assay. […] (3).

[3] = test system: CYP1A1 expression in Caco2 cells; experiment: CYP1A1 expression in Caco2 cells by quantitative real-time PCR; type: cell-based, human; details: 5 μM αNF preincubated 30 minutes
Experimental: Human Caco2 cells were cultured in DMEM medium (Invitrogen/Gibco, Carlsbad, Calif.) supplemented with 10% FBS and an antibiotic, a portion was preincubated with 5 μM αNF for 30 minutes, and both that which had been preincubated and that which had not been preincubated were subjected to stimulation with a 10% v/v heat-sterilized OLL1181 strain suspension for 4 hours.
The Caco2 cells obtained in (1) were subjected to quantitative real-time PCR. The quantitative real-time PCR was carried out using an ABI 7300 real-time PCR system (Applied Biosystems, Foster City, Calif.) in accordance with an instruction manual. With regard to a primer and a probe, those for human CYP1A1 (Assay ID: Hs02382618_s1) and those for glyceraldehyde-3-phosphate dehydrogenase (GAPDH) (Assay ID: Hs99999905_m1) (Applied Biosystems) were used. The level of CYP1A1 gene expression relative to the level of GAPDH gene expression was calculated and defined as the relative level of CYP1A1 gene expression.

[4] = test system: PGE2 secretion by Caco2 cells; experiment: Prostaglandin E2 (PGE2) ELISA of Caco2 culture supernatant; type: cell-based; details: human Caco2 cells, αNF preincubation
[5] = DSS-treated mouse, compared with no TCDD

Row | Compound | Inflammation score [1, 5] | Production of inflammatory cytokines [1, 5] | Shortening of the intestinal tract [1, 5] | Weight loss [1, 5] | Inflammatory response of ulcerative colitis induced by DSS ([1]; mouse, in vivo) | Effect on the increase in SEAP activity caused by stimulation with the OLL1181 strain [2] | Effect on the OLL1181-induced increase of CYP1A1 expression [3] | Effect on PGE2 production by stimulation with the OLL1181 strain [4]
1 | Clc1cc2c(cc1Cl)Oc1cc(Cl)c(Cl)cc1O2 [TCDD, 2,3,7,8-tetrachlorodibenzo-p-dioxin] | significantly suppressed | significantly suppressed | significantly suppressed | significantly suppressed | suppresses | – | – | –
2 | O=c1cc(-c2ccccc2)oc2c1ccc1ccccc12 [αNF, α-naphthoflavone] | – | – | – | – | – | significantly inhibited | significantly suppressed | inhibited
